In US12552825B2 (Zikani Therapeutics, Inc., priority 2019, dated 2026):
Converted amounts (≈) assume the structure as drawn.

Assays:
Assay type in all cases: cell-based
[1] = test system: E. coli MP-4; experiment: MIC determination by CLSI broth dilution, E. coli MP-4; details: Escherichia coli, MP4, CLSI broth dilution; strain MP-4
[2] = test system: K. pneumoniae MP-648; experiment: MIC determination by CLSI broth dilution, K. pneumoniae MP-648; details: Klebsiella pneumoniae, MP648, CLSI broth dilution; strain MP-648
[3] = test system: A. baumannii MP-15; experiment: MIC determination by CLSI broth dilution, A. baumannii MP-15; details: Acinetobacter baumannii, MP15, strain MP-15, read-out: MIC A. baumanii MP-15
[4] = test system: K. pneumoniae MP-546; experiment: MIC determination by CLSI broth dilution, K. pneumoniae MP-546; details: Klebsiella pneumoniae, MP546, CLSI broth dilution; strain MP-546
[5] = test system: S. aureus MP-12; experiment: microbe, parasite or virus in culture; details: Staphylococcus aureus, MP12, read-out: MIC S. aureus MP-12
[6] = test system: P. aeruginosa MP-3; experiment: MIC determination by CLSI broth dilution, P. aeruginosa MP-3; details: Pseudomonas aeruginosa, MP3, strain MP-3

## CO[C@]1(C)C[C@@H](C)CN(C)[C@H](CC2CCN(Cc3ccco3)CC2)COC(=O)C(C)(C)C(=O)[C@H](C)[C@H]1O[C@@H]1O[C@H](C)C[C@H](N(C)C)[C@H]1O [Compound 62]
[1]
  MIC: < 4 µg/mL
[2]
  MIC: < 4 µg/mL
[3]
  MIC: 4 to 32 µg/mL (≈ 5.9 to 47.2 µM)
[4]
  MIC: < 4 µg/mL
[5]
  MIC: 4 to 32 µg/mL (≈ 5.9 to 47.2 µM)
[6]
  MIC: > 32 µg/mL

## CO[C@]1(C)C[C@@H](C)CN(C)[C@H](CC2CCN(C3CC3)CC2)COC(=O)C(C)(C)C(=O)[C@H](C)[C@H]1O[C@@H]1O[C@H](C)C[C@H](N(C)C)[C@H]1O [Compound 63]
[1]
  MIC: < 4 µg/mL
[2]
  MIC: 4 to 32 µg/mL (≈ 6.27 to 50.2 µM)
[3]
  MIC: > 32 µg/mL
[4]
  MIC: < 4 µg/mL
[5]
  MIC: 4 to 32 µg/mL (≈ 6.27 to 50.2 µM)
[6]
  MIC: > 32 µg/mL

## CO[C@]1(C)C[C@@H](C)CN(C)[C@H](CC2CCN(C=O)CC2)COC(=O)C(C)(C)C(=O)[C@H](C)[C@H]1O[C@@H]1O[C@H](C)C[C@H](N(C)C)[C@H]1O [Compound 64]
[1]
  MIC: > 32 µg/mL
[2]
  MIC: > 32 µg/mL
[3]
  MIC: > 32 µg/mL
[4]
  MIC: > 32 µg/mL
[5]
  MIC: > 32 µg/mL
[6]
  MIC: > 32 µg/mL

## COC(CN1CCC(C[C@@H]2COC(=O)C(C)(C)C(=O)[C@H](C)[C@@H](O[C@@H]3O[C@H](C)C[C@H](N(C)C)[C@H]3O)[C@](C)(OC)C[C@@H](C)CN2C)CC1)OC [Compound 65]
[1]
  MIC: < 4 µg/mL
[2]
  MIC: 4 to 32 µg/mL (≈ 5.83 to 46.7 µM)
[3]
  MIC: > 32 µg/mL
[4]
  MIC: < 4 µg/mL
[5]
  MIC: 4 to 32 µg/mL (≈ 5.83 to 46.7 µM)
[6]
  MIC: > 32 µg/mL

## CO[C@]1(C)C[C@@H](C)CN(C)[C@@H](CC2CCN(CC3CC=CCC3)CC2)COC(=O)C(C)(C)C(=O)[C@H](C)[C@H]1O[C@@H]1O[C@H](C)C[C@H](N(C)C)[C@H]1O (stereo partly drawn) [Compound 73]
[1]
  MIC: < 4 µg/mL
[2]
  MIC: 4 to 32 µg/mL (≈ 5.78 to 46.2 µM)
[3]
  MIC: > 32 µg/mL
[4]
  MIC: < 4 µg/mL
[5]
  MIC: 4 to 32 µg/mL (≈ 5.78 to 46.2 µM)
[6]
  MIC: > 32 µg/mL

## CO[C@]1(C)C[C@@H](C)CN(C)[C@H](CC2CN(CC(C)C)C2)COC(=O)C(C)(C)C(=O)[C@H](C)[C@H]1O[C@@H]1O[C@H](C)C[C@H](N(C)C)[C@H]1O [Compound 74]
[1]
  MIC: > 32 µg/mL
[2]
  MIC: > 32 µg/mL
[3]
  MIC: > 32 µg/mL
[4]
  MIC: > 32 µg/mL
[5]
  MIC: > 32 µg/mL
[6]
  MIC: > 32 µg/mL

## CCCN1CCC(CC[C@@H]2COC(=O)C(C)(C)C(=O)[C@H](C)[C@@H](O[C@@H]3O[C@H](C)C[C@H](N(C)C)[C@H]3O)[C@](C)(OC)C[C@@H](C)CN2C)CC1 [Compound 75]
[1]
  MIC: 4 to 32 µg/mL (≈ 6.12 to 48.9 µM)
[2]
  MIC: > 32 µg/mL
[3]
  MIC: > 32 µg/mL
[4]
  MIC: > 32 µg/mL
[5]
  MIC: > 32 µg/mL
[6]
  MIC: > 32 µg/mL

## CO[C@]1(C)C[C@@H](C)CN(C)[C@H](CCC2CCN(CC(C)C)CC2)COC(=O)C(C)(C)C(=O)[C@H](C)[C@H]1O[C@@H]1O[C@H](C)C[C@H](N(C)C)[C@H]1O [Compound 76]
[1]
  MIC: < 4 µg/mL
[2]
  MIC: 4 to 32 µg/mL (≈ 5.99 to 47.9 µM)
[3]
  MIC: > 32 µg/mL
[4]
  MIC: 4 to 32 µg/mL (≈ 5.99 to 47.9 µM)
[5]
  MIC: > 32 µg/mL
[6]
  MIC: > 32 µg/mL

## CO[C@H](CCN1CCCC1)[C@@H]1COC(=O)C(C)(C)C(=O)[C@H](C)[C@@H](O[C@@H]2O[C@H](C)C[C@H](N(C)C)[C@H]2O)[C@](C)(OC)C[C@@H](C)CN1C [Compound 77]
[1]
  MIC: < 4 µg/mL
[2]
  MIC: < 4 µg/mL
[3]
  MIC: > 32 µg/mL
[4]
  MIC: < 4 µg/mL
[5]
  MIC: 4 to 32 µg/mL (≈ 6.23 to 49.9 µM)
[6]
  MIC: > 32 µg/mL

## CO[C@]1(C)C[C@@H](C)CN(C)[C@H]([C@H](O)CCN2CCCC2)COC(=O)C(C)(C)C(=O)[C@H](C)[C@H]1O[C@@H]1O[C@H](C)C[C@H](N(C)C)[C@H]1O [Compound 78, (3S,6R,8R,9R,10R)-9-(((2S,3R,4S,6R)-4-(Dimethylamino)-3-hydroxy-6-methyltetrahydro-2H-pyran-2-yl)oxy)-3-((R)-1-hydroxy-3-(pyrrolidin-1-yl)propyl)-8-methoxy-4,6,8,10,12,12-hexamethyl-1-oxa-4-azacyclotridecane-11,13-dione]
[1]
  MIC: < 4 µg/mL
[2]
  MIC: < 4 µg/mL
[3]
  MIC: > 32 µg/mL
[4]
  MIC: < 4 µg/mL
[5]
  MIC: < 4 µg/mL
[6]
  MIC: > 32 µg/mL

## CCCN1CC(C[C@H]2COC(=O)C(C)(C)C(=O)[C@H](C)[C@@H](O[C@@H]3O[C@H](C)C[C@H](N(C)C)[C@H]3O)[C@](C)(OC)C[C@@H](C)CN2C)C1 [Compound 79]
[1]
  MIC: 4 to 32 µg/mL (≈ 6.54 to 52.3 µM)
[2]
  MIC: > 32 µg/mL
[3]
  MIC: > 32 µg/mL
[4]
  MIC: > 32 µg/mL
[5]
  MIC: > 32 µg/mL
[6]
  MIC: > 32 µg/mL

## CO[C@]1(C)C[C@@H](C)CN(C)[C@H](CCCN2CCC(F)CC2)COC(=O)C(C)(C)C(=O)[C@H](C)[C@H]1O[C@@H]1O[C@H](C)C[C@H](N(C)C)[C@H]1O [Compound 85, (3R,6R,8R,9R,10R)-9-(((2S,3R,4S,6R)-4-(dimethylamino)-3-hydroxy-6-methyltetrahydro-2H-pyran-2-yl)oxy)-3-(3-(4-fluoropiperidin-1-yl)propyl)-8-methoxy-4,6,8,10,12,12-hexamethyl-1-oxa-4-azacyclotridecane-11,13-dione]
[1]
  MIC: < 4 µg/mL
[2]
  MIC: < 4 µg/mL
[3]
  MIC: > 32 µg/mL
[4]
  MIC: < 4 µg/mL
[5]
  MIC: < 4 µg/mL
[6]
  MIC: > 32 µg/mL

## CCN1C[C@H](C)C[C@@](C)(OC)[C@H](O[C@@H]2O[C@H](C)C[C@H](N(C)C)[C@H]2O)[C@@H](C)C(=O)C(C)(C)C(=O)OC[C@@H]1CCCN1CCCC1 [Compound 87, (3S,6R,8R,9R,10R)-9-(((2S,3R,4S,6R)-4-(dimethylamino)-3-hydroxy-6-methyltetrahydro-2H-pyran-2-yl)oxy)-4-ethyl-8-methoxy-6,8,10,12,12-pentamethyl-3-(3-(pyrrolidin-1-yl)propyl)-1-oxa-4-azacyclotridecane-11,13-dione]
[1]
  MIC: < 4 µg/mL
[2]
  MIC: < 4 µg/mL
[3]
  MIC: > 32 µg/mL
[4]
  MIC: < 4 µg/mL
[5]
  MIC: < 4 µg/mL
[6]
  MIC: > 32 µg/mL

## CCN1C[C@H](C)C[C@@](C)(OC)[C@H](O[C@@H]2O[C@H](C)C[C@H](N(C)C)[C@H]2O)[C@@H](C)C(=O)C(C)(C)C(=O)OC[C@H]1CCCN1CCC[C@@H]1C [Compound 88, (3R,6R,8R,9R,10R)-9-(((2S,3R,4S,6R)-4-(dimethylamino)-3-hydroxy-6-methyltetrahydro-2H-pyran-2-yl)oxy)-4-ethyl-8-methoxy-6,8,10,12,12-pentamethyl-3-(3-((S)-2-methylpyrrolidin-1-yl)propyl)-1-oxa-4-azacyclotridecane-11,13-dione]
[1]
  MIC: < 4 µg/mL
[2]
  MIC: < 4 µg/mL
[3]
  MIC: > 32 µg/mL
[4]
  MIC: < 4 µg/mL
[5]
  MIC: 4 to 32 µg/mL (≈ 6.25 to 50 µM)
[6]
  MIC: > 32 µg/mL

## CO[C@]1(C)C[C@@H](C)CN(C)[C@@H](CCCN(C)C2CC2)COC(=O)C(C)(C)C(=O)[C@H](C)[C@H]1O[C@@H]1O[C@H](C)C[C@H](N(C)C)[C@H]1O [Compound 90, (3S,6R,8R,9R,10R)-3-(3-(cyclopropyl(methyl)amino)propyl)-9-(((2S,3R,4S,6R)-4-(dimethylamino)-3-hydroxy-6-methyltetrahydro-2H-pyran-2-yl)oxy)-8-methoxy-4,6,8,10,12,12-hexamethyl-1-oxa-4-azacyclotridecane-11,13-dione]
[1]
  MIC: < 4 µg/mL
[2]
  MIC: 4 to 32 µg/mL (≈ 6.54 to 52.3 µM)
[3]
  MIC: > 32 µg/mL
[4]
  MIC: < 4 µg/mL
[5]
  MIC: 4 to 32 µg/mL (≈ 6.54 to 52.3 µM)
[6]
  MIC: > 32 µg/mL
